Laboratory results: US7872026B2, “Ligand activators of the RAR receptors and pharmaceutical/cosmetic applications thereof” (Galderma Research & Development, priority 2003, dated 2011)

Experiments:
RAR alpha = target: T1, RAR alpha (Homo sapiens, UniProt P10276); experiment: Transactivation test (Kd apparent), RAR alpha; type: cell-based; conditions: HeLa cells stably transfected with ERE-βGlob-Luc-SV-Neo reporter and RAR α ER-DBD-puro; luciferase; Schild regression vs reference antagonist; read-out: RAR alpha KD app
T1 sequence (P10276 183-417 limits assumed): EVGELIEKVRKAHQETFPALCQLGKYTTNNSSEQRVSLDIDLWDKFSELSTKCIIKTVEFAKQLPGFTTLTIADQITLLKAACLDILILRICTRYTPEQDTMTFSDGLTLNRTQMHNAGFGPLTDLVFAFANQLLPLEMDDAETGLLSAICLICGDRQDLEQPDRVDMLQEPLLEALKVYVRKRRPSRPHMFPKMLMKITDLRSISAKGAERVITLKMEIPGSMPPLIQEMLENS
Method: (§1) The compounds according to the invention have activating properties on RAR-type receptors. This RAR-receptor-activating activity is measured in a test of transactivation by means of the dissociation constant Kdapp (apparent).
(§2) The activation of receptors with an agonist (activator) in HeLa cells leads to the expression of a reporter gene, luciferase, which, in the presence of a substrate, generates light. The activation of the receptors may thus be measured by quantifying the luminescence produced after incubating the cells in the presence of a reference agonist. The activating products displace the agonist from its site, thus preventing activation of the receptor. The activity is measured by quantifying the decrease in light produced. This measurement makes it possible to determine the activating activity of the compounds according to the invention.
(§3) In this study, a constant is determined which represents the affinity of the molecule for the receptor. Since this value can fluctuate depending on the basal activity and the expression of the receptor, it is referred to as the Kd apparent (KdApp).
(§4) To determine this constant, the cells are brought into contact with a concentration of the test product and a concentration of the reference antagonist, 4-(5,5-dimethyl-8-p-tolyl-5,6-dihydro-2-naphthalen-2-ylethynyl)benzoic acid. Measurements are also taken for the total agonist (4-[2-(5,5,8,8-tetramethyl-5,6,7,8-tetrahydro-2-naphthyl)propenyl]benzoic acid) and inverse agonist, 4-{(E)-3-[4-(4-tert-butylphenyl)-5,5,8,8-tetramethyl-5,6,7,8-tetrahydro-2-naphthyl]-3-oxopropenyl}benzoic acid, controls.
(§5) These crossed curves make it possible to determine the AC50 values (concentration at which 50% activation is observed) for the reference ligand at various concentrations of test product. These AC50 values are used to calculate the Schild regression by plotting a straight line corresponding to the Schild equation (“Quantitation in Receptor Pharmacology” Terry P. Kenakin, Receptors and Channels, 2001, 7, 371-385).
(§6) In the case of an agonist, an AC50 value (concentration that gives 50% of the activity) is calculated by plotting the curve of the product at the concentration of the reference ligand that gives 80% activation.
(§7) The HeLa cell lines used are stable transfectants containing the plasmids ERE-βGlob-Luc-SV-Neo (reporter gene) and RAR (α, β, γ) ER-DBD-puro. These cells are inoculated into 96-well plates at a rate of 10,000 cells per well in 100 μl of DMEM medium without phenol red, and supplemented with 10% defatted calf serum. The plates are then incubated at 37° C. and 7% CO2 for 4 hours.
(§8) The various dilutions of the test products, of the reference ligand (4-(5,5-dimethyl-8-p-tolyl-5,6-dihydro-2-naphthalen-2-ylethynyl)benzoic acid), of the 100% control (100 nM 4-[2-(5,5,8,8-tetramethyl-5,6,7,8-tetrahydro-2-naphthyl)propenyl]benzoic acid) and of the 0% control (500 nM 4-{(E)-3-[4-(4-tert-butylphenyl)-5,5,8,8-tetramethyl-5,6,7,8-tetrahydro-2-naphthyl]-3-oxopropenyl}benzoic acid) are added at a rate of 5 μl per well. The plates are then incubated for 18 hours at 37° C. and 7% CO2.
(§9) The culture medium is removed by turning over and 100 μl of a 1:1 PBS/luciferin mixture is added to each well. After 5 minutes, the plates are read using the luminescence reader.

RAR beta = target: T2, RAR beta (Homo sapiens, UniProt P10826); experiment: Transactivation test (Kd apparent), RAR beta; type: cell-based; conditions: HeLa cells stably transfected with ERE-βGlob-Luc-SV-Neo reporter and RAR β ER-DBD-puro; luciferase; Schild regression vs reference antagonist; read-out: RAR beta Kd app
T2 sequence (P10826 183-417 limits assumed): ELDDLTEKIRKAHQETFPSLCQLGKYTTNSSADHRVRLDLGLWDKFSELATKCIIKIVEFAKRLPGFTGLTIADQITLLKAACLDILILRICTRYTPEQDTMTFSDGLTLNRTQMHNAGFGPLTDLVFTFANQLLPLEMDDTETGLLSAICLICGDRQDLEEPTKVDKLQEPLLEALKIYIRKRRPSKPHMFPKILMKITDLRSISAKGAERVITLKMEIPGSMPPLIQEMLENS
Method: as §1, §2, §3, §4, §5, §6, §7, §8, §9

RAR gamma = target: T3, RAR gamma (Homo sapiens, UniProt P13631); experiment: Transactivation test (Kd apparent), RAR gamma; type: cell-based; conditions: HeLa cells stably transfected with ERE-βGlob-Luc-SV-Neo reporter and RAR γ ER-DBD-puro; luciferase; Schild regression vs reference antagonist; read-out: RAR gamma Kd app
T3 sequence (P13631 185-454 limits assumed): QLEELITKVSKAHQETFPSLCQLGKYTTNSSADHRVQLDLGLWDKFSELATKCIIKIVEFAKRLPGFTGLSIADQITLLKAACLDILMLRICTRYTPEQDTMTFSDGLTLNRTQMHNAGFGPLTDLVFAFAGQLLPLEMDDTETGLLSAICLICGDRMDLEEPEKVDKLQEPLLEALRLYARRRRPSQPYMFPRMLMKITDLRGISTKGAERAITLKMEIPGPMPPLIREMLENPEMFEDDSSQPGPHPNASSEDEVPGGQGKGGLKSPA
Method: as §1, §2, §3, §4, §5, §6, §7, §8, §9

CC(C)NCCCCOc1ccc(-c2ccc(C(=O)O)cc2)cc1-c1ccc2c(c1)C(C)(C)CCC2(C)C [Compound 1, 4′-(4-Isopropylaminobutoxy)-3′-(5,5,8,8-tetramethyl-5,6,7,8-tetrahydronaphth-2-yl)biphenyl-4-carboxylic acid]
Kd (RAR alpha): 1000 nM
Kd (RAR beta): 500 nM
Kd (RAR gamma): 15 nM

CC(C)NCCOc1ccc(-c2ccc(C(=O)O)cc2)cc1-c1ccc2c(c1)C(C)(C)CCC2(C)C [Compound 12, 4′-(2-Isopropylaminoethoxy)-3′-(5,5,8,8-tetramethyl-5,6,7,8-tetrahydronaphth-2-yl)biphenyl-4-carboxylic acid]
Kd (RAR beta): 4000 nM
Kd (RAR gamma): 120 nM

CCOC(=O)c1ccc(-c2ccc(OCCCNC3CC3)c(-c3ccc4c(c3)C(C)(C)CCC4(C)C)c2)cc1 [Compound 50, Ethyl 4′-(3-cyclopropylaminopropoxy)-3′-(5,5,8,8-tetramethyl-5,6,7,8-tetrahydronaphth-2-yl)biphenyl-4-carboxylate]
melting point: 141 °C

CCCCNCCCOc1ccc(-c2ccc(C(=O)OCC)cc2)cc1-c1ccc2c(c1)C(C)(C)CCC2(C)C [Compound 52, Ethyl 4′-(3-butylaminopropoxy)-3′-(5,5,8,8-tetramethyl-5,6,7,8-tetrahydronaphth-2-yl)biphenyl-4-carboxylate]
melting point: 175 °C

CCCNCCCOc1ccc(-c2ccc(C(=O)OCC)cc2)cc1-c1ccc2c(c1)C(C)(C)CCC2(C)C [Compound 56, Ethyl 4′-(3-propylaminopropoxy)-3′-(5,5,8,8-tetramethyl-5,6,7,8-tetrahydronaphth-2-yl)biphenyl-4-carboxylate]
melting point: 120 °C

CC1(C)CCC(C)(C)c2cc(-c3cc(-c4ccc(C(=O)O)cc4)ccc3OCCCCNC3CC3)ccc21 [Compound 59, 4′-(4-Cyclopropylaminobutoxy)-3′-(5,5,8,8-tetramethyl-5,6,7,8-tetrahydronaphth-2-yl)biphenyl-4-carboxylic acid]
Kd (RAR alpha): 8000 nM
Kd (RAR beta): 4000 nM
Kd (RAR gamma): 1000 nM

CCOC(=O)c1ccc(-c2ccc(OCCCNC)c(-c3ccc4c(c3)C(C)(C)CCC4(C)C)c2)cc1 [Compound 60, Ethyl 4′-(3-methylaminopropoxy)-3′-(5,5,8,8-tetramethyl-5,6,7,8-tetrahydronaphth-2-yl)biphenyl-4-carboxylate]
melting point: 141 °C

CNCCCOc1ccc(-c2ccc(C(=O)O)cc2)cc1-c1ccc2c(c1)C(C)(C)CCC2(C)C [Compound 61, 4′-(3-Methylaminopropoxy)-3′-(5,5,8,8-tetramethyl-5,6,7,8-tetrahydronaphth-2-yl)biphenyl-4-carboxylic acid]
Kd (RAR gamma): 30 nM

CCNCCCOc1ccc(-c2ccc(C(=O)OCC)cc2)cc1-c1ccc2c(c1)C(C)(C)CCC2(C)C [Compound 62, Ethyl 4′-(3-ethylaminopropoxy)-3′-(5,5,8,8-tetramethyl-5,6,7,8-tetrahydronaphth-2-yl)biphenyl-4-carboxylate]
melting point: 148 °C

CCNCCCOc1ccc(-c2ccc(C(=O)O)cc2)cc1-c1ccc2c(c1)C(C)(C)CCC2(C)C [Compound 63, 4′-(3-Ethylaminopropoxy)-3′-(5,5,8,8-tetramethyl-5,6,7,8-tetrahydronaphth-2-yl)biphenyl-4-carboxylic acid]
Kd (RAR gamma): 250 nM

CC1(C)CCC(C)(C)c2cc(-c3cc(-c4ccc(C(=O)O)cc4)ccc3OCCCN)ccc21 [Compound 65, 4′-(3-Aminopropoxy)-3′-(5,5,8,8-tetramethyl-5,6,7,8-tetrahydronaphth-2-yl)biphenyl-4-carboxylic acid]
Kd (RAR gamma): 8 nM

CC1(C)CCC(C)(C)c2cc(-c3cc(-c4ccc(C(=O)O)cc4)ccc3OCCNC3CC3)ccc21 [Compound 67, 4′-(2-Cyclopropylaminoethoxy)-3′-(5,5,8,8-tetramethyl-5,6,7,8-tetrahydronaphth-2-yl)biphenyl-4-carboxylic acid]
Kd (RAR alpha): 1000 nM
Kd (RAR beta): 60 nM
Kd (RAR gamma): 4 nM

CC1(C)CCC(C)(C)c2cc(-c3cc(-c4ccc(C(=O)O)cc4)ccc3OCCCCCNC3CC3)ccc21 [Compound 69, 4′-(5-Cyclopropylaminopentyloxy)-3′-(5,5,8,8-tetramethyl-5,6,7,8-tetrahydronaphth-2-yl)biphenyl-4-carboxylic acid]
Kd (RAR alpha): 2000 nM
Kd (RAR beta): 500 nM
Kd (RAR gamma): 250 nM

CC1(C)CCC(C)(C)c2cc(-c3cc(-c4ccc(C(=O)O)cc4)ccc3OCCCCCN)ccc21 [Compound 73, 4′-(5-Aminopentyloxy)-3′-(5,5,8,8-tetramethyl-5,6,7,8-tetrahydronaphth-2-yl)biphenyl-4-carboxylic acid]
Kd (RAR alpha): 2000 nM
Kd (RAR beta): 2000 nM
Kd (RAR gamma): 120 nM

CC1(C)CCC(C)(C)c2cc(-c3cc(-c4ccc(C(=O)O)cc4)ccc3OCCCCN)ccc21 [Compound 75, 4′-(4-Aminobutoxy)-3′-(5,5,8,8-tetramethyl-5,6,7,8-tetrahydronaphth-2-yl)biphenyl-4-carboxylic acid]
Kd (RAR alpha): 8000 nM
Kd (RAR beta): 2000 nM
Kd (RAR gamma): 60 nM
